Source: EP4438030A1, “TERNARY ANTI-SPOT COMBINATION TO LIGHTEN SKIN” (E Grau Active Cosmetics, S.L.U., priority 2023, dated 2024)

Tested on: Normal human epidermal melanocytes
Settings: melanocytes irradiated with ultraviolet light (2.5 J/cm2), 96 hours; mixture 0.0003% hydroxytyrosol, 0.00001% maslinic acid, 0.001% vitamin C (w/w); hydroquinone 10-8% (w/w)
Method: Normal human epidermal melanocytes were cultured in 48-well plates at a density of 2×10^4 cells/well overnight in a CO2 incubator at 37°C in the culture medium called Melanocyte Growth Medium (PromoCell, R.F.A.). The culture medium was then removed and replaced with fresh medium, and the cells were cultured for 96 hours in the presence of a mixture containing 0.0003% (w/w) of hydroxytyrosol, 0.00001% (w/w) of maslinic acid and 0.001% (w/w) of vitamin C. […] To mimic exposure to sunlight, the cells were irradiated with ultraviolet light for the last 48 hours in 4 cycles lasting 15 minutes. Irradiation measurements indicated a total dose of 2.5 J/cm2. Melanin was extracted by adding 1 M sodium hydroxide and incubating at 60°C for 1 h.
In parallel, a cell viability assay was carried out using 3-(4,5-dimethylthiazol-2-yl)-2,5-diphenyltetrazolium bromide dye (MTT Assay) to normalise melanin values to cell levels and thus correct possible interferences due to small variations in the number of cells in each well.

**Q.** Oc1ccc(O)cc1 [hydroquinone] was tested. Which “reduction of melanin production” value did it give?
**A.** 42%
